Test results as given in PubChem BioAssay (NCI).
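1) Cells in 96-well plates. 2) Compound, 48 h, 5 concentrations. 3) Linear interpolation between surrounding doses. 4) Unreached endpoint = highest concentration. Abbreviation: GI50, concentration required for 50% inhibition of growth. TGI: concentration producing complete growth inhibition.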

Tests used:
Assay in all cases: NCI anticancer screen, dose series, 48 h
[1] = test system: OVCAR-5 ovarian
[2] = test system: RXF 393 renal
[3] = test system: CCRF-CEM leukemia
[4] = test system: MCF7 breast
[5] = test system: NCI-H23 lung
[6] = test system: HS 578T breast
[7] = test system: LOX IMVI melanoma
[8] = test system: MDA-MB-435
[9] = test system: IGROV1 ovarian
[10] = test system: SF-539 CNS
[11] = test system: TK-10 renal
[12] = test system: COLO 205 colon
[13] = test system: CAKI-1 renal
[14] = test system: SK-MEL-2 melanoma
[15] = test system: HCC-2998 colon
[16] = test system: SW-620 colon
[17] = test system: OVCAR-4 ovarian
[18] = test system: UACC-257 melanoma
[19] = test system: SK-MEL-5 melanoma
[20] = test system: SK-MEL-28 melanoma
[21] = test system: SF-268 CNS
[22] = test system: NCI-H226 lung
[23] = test system: K-562 leukemia
[24] = test system: UO-31 renal
[25] = test system: A498 renal
[26] = test system: M14 melanoma
[27] = test system: HCT-116 colon
[28] = test system: HL-60(TB) leukemia
[29] = test system: HOP-92 NSCLC
[30] = test system: EKVX NSCLC
[31] = test system: ACHN renal
[32] = test system: UACC-62 melanoma
[33] = test system: SNB-19 CNS
[34] = test system: SF-295 CNS
[35] = test system: HT29 colon
[36] = test system: OVCAR-3 ovarian
[37] = test system: PC-3 prostate
[38] = test system: MOLT-4 leukemia
[39] = test system: NCI/ADR-RES ovarian
[40] = test system: MDA-MB-231 breast
[41] = test system: HCT-15 colon
[42] = test system: NCI-H460 lung
[43] = test system: SNB-75 CNS
[44] = test system: DU-145 prostate
[45] = test system: KM12 colon
[46] = test system: NCI-H522 lung
[47] = test system: SN12C renal
[48] = test system: RPMI-8226 leukemia
[49] = test system: U251 CNS
[50] = test system: T-47D breast
[51] = test system: HOP-62 NSCLC
[52] = test system: OVCAR-8 ovarian
[53] = test system: SK-OV-3 ovarian
[54] = test system: BT-549 breast
[55] = test system: A549 NSCLC
[56] = test system: 786-0 renal

Work on `COc1ccc(OC)c(/C=C/C(=O)c2ccc(SC)cc2)c1` yielded a GI50 [1] of 18.3 µM, a TGI [1] of 36.4 µM and a GI50 [2] of 16.2 µM. For the same molecule, the TGI [2] was 37.3 µM, the GI50 [3] was 2.22 µM and the TGI [3] was 13.8 µM. For the same molecule, the GI50 [4] was 3.98 µM, the TGI [4] was 12.8 µM and the GI50 [5] was 2.77 µM. It also gave a TGI [5] of 7.6 µM, a GI50 [6] of 3.81 µM and a TGI [6] greater than 100 µM. The GI50 [7] was 12.3 µM, the TGI [7] was 28 µM and the GI50 [8] was 2.09 µM. The TGI [8] was 8.91 µM, the GI50 [9] was 11 µM and the TGI [9] was 27.1 µM. For the same molecule, the GI50 [10] was 2.55 µM, the TGI [10] was 6.99 µM and the GI50 [11] was 17.9 µM. The TGI [11] was 65.7 µM, the GI50 [12] was 5.57 µM and the TGI [12] was greater than 100 µM. The GI50 [13] was 2.39 µM, the TGI [13] was 18.5 µM and the GI50 [14] was 6.12 µM. It also gave a TGI [14] of 20.4 µM, a GI50 [15] of 4.81 µM and a TGI [15] of 17.1 µM. For the same molecule, the GI50 [16] was 3.45 µM, the TGI [16] was greater than 100 µM and the GI50 [17] was 61.1 µM. The TGI [17] was greater than 100 µM, the GI50 [18] was 16.9 µM and the TGI [18] was 33.8 µM. For the same molecule, the GI50 [19] was 3.31 µM, the TGI [19] was 14 µM and the GI50 [20] was 10.1 µM. It also gave a TGI [20] of 51.1 µM, a GI50 [21] of 2.58 µM and a TGI [21] of 7.46 µM. For the same molecule, the GI50 [22] was 28.9 µM, the TGI [22] was 88.4 µM and the GI50 [23] was 2.72 µM. It also gave a TGI [23] of 7.44 µM, a GI50 [24] of 15.5 µM and a TGI [24] of 30.7 µM. It also gave a GI50 [25] of 13.7 µM, a TGI [25] of 30.3 µM and a GI50 [26] of 12.6 µM. The TGI [26] was 27.1 µM, the GI50 [27] was 2.57 µM and the TGI [27] was 7.77 µM. The GI50 [28] was 3.65 µM, the TGI [28] was 12.6 µM and the GI50 [29] was 6 µM. For the same molecule, the TGI [29] was greater than 100 µM, the GI50 [30] was 16.8 µM and the TGI [30] was 39.4 µM. The GI50 [31] was 17.2 µM, the TGI [31] was 38.4 µM and the GI50 [32] was 15 µM. For the same molecule, the TGI [32] was 29.1 µM, the GI50 [33] was 9.68 µM and the TGI [33] was 46.5 µM. It also gave a GI50 [34] of 5.05 µM, a TGI [34] of 57 µM and a GI50 [35] of 3.89 µM. The TGI [35] was greater than 100 µM, the GI50 [36] was 0.0897 µM and the TGI [36] was 2.7 µM. It also gave a GI50 [37] of 3.49 µM, a TGI [37] of 14.9 µM and a GI50 [38] of 3.26 µM. It also gave a TGI [38] greater than 100 µM, a GI50 [39] of 3.28 µM and a TGI [39] of 11.8 µM. For the same molecule, the GI50 [40] was 54 µM, the TGI [40] was greater than 100 µM and the GI50 [41] was 13.8 µM. For the same molecule, the TGI [41] was 36.6 µM, the GI50 [42] was 3.82 µM and the TGI [42] was 17.6 µM. For the same molecule, the GI50 [43] was 8.88 µM, the TGI [43] was greater than 100 µM and the GI50 [44] was 4.37 µM. The TGI [44] was 18.3 µM, the GI50 [45] was 4.9 µM and the TGI [45] was 27.7 µM. It also gave a GI50 [46] of 6.91 µM, a TGI [46] of 23.4 µM and a GI50 [47] of 17.2 µM. For the same molecule, the TGI [47] was 33.9 µM, the GI50 [48] was 1.66 µM and the TGI [48] was 7.05 µM. For the same molecule, the GI50 [49] was 12.7 µM, the TGI [49] was 26.9 µM and the GI50 [50] was 18.1 µM. The TGI [50] was greater than 100 µM, the GI50 [51] was 18.4 µM and the TGI [51] was 52.3 µM. The GI50 [52] was 24.3 µM, the TGI [52] was 68.7 µM and the GI50 [53] was 8.07 µM. For the same molecule, the TGI [53] was greater than 100 µM, the GI50 [54] was 2.8 µM and the TGI [54] was 7.01 µM. It also gave a GI50 [55] of 28.9 µM, a TGI [55] greater than 100 µM and a GI50 [56] of 7.53 µM. It also gave a TGI [56] of 21.6 µM.
